Test [1] has as its target T1, F508delCFTR in primary hBE cells with F508del/F508del CFTR mutation (Homo sapiens, UniProt P13569, DEL508-508).
T1 construct: cells isolated from CF patients with the homozygous mutation; endogenous in cells; host or cells: primary human bronchial epithelial (hBE) cells from F508del/F508del CF patients
The test is described as follows: Transepithelial Clamp Circuit on Human Bronchial Epithelial Cells Conductance Assay (hBE-TECC). In kind it is cell-based. Particulars: for EC50: primary hBE cells F508del/F508del, 18-24 hours at 37° C., equivalent short circuit current, 6 concentrations. Put shortly:
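Primary F508del/F508del hBE cells grown 35 days at air-liquid interface, treated basolaterally with correctors 18-24 h at 37° C. Ieq (Vt/Rt) at 36.5° C, pH 7.4, after benzamil, forskolin 10 μM, control potentiator, bumetanide; 6 concentrations normalized to DMSO and 3 μM positive-control corrector, EC50 by 4-parameter fit.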

Test [2] deals with T2, F508delCFTR cell surface expression in CFBE41o-F508delCFTR-HRP cells (Homo sapiens, UniProt P13569, DEL508-508).
T2 construct: fused on or other part: Horseradish peroxidase (HRP) reporter inserted in the fourth exofacial (extracellular) loop of CFTR; expression is doxycycline-inducible
T2 sequence (P13569 with tags, fused parts or gaps DEL508-508 limits assumed): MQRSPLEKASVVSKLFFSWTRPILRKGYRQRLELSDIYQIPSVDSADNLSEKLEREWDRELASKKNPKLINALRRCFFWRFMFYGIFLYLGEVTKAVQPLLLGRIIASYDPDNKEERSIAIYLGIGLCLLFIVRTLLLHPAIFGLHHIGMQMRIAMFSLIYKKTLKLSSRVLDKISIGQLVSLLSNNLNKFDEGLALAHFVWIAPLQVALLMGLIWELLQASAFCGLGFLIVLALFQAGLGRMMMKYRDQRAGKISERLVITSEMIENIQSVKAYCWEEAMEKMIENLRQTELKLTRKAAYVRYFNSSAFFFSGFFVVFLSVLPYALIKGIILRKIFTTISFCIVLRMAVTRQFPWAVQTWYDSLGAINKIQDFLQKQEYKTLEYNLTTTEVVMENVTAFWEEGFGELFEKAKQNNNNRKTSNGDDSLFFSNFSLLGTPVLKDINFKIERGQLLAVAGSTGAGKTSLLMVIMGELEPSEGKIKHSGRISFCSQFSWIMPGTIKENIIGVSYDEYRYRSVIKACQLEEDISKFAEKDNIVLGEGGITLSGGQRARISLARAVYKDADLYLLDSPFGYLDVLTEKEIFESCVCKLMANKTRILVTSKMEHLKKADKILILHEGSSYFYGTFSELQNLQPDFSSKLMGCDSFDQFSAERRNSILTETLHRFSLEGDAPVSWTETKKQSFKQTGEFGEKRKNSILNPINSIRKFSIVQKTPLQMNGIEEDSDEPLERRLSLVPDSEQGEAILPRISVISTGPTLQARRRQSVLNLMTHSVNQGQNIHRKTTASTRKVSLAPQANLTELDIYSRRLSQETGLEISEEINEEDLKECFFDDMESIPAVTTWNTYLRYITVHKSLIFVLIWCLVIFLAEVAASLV
T2 sequence (P13569 919-1480 limits assumed, stated change not applied): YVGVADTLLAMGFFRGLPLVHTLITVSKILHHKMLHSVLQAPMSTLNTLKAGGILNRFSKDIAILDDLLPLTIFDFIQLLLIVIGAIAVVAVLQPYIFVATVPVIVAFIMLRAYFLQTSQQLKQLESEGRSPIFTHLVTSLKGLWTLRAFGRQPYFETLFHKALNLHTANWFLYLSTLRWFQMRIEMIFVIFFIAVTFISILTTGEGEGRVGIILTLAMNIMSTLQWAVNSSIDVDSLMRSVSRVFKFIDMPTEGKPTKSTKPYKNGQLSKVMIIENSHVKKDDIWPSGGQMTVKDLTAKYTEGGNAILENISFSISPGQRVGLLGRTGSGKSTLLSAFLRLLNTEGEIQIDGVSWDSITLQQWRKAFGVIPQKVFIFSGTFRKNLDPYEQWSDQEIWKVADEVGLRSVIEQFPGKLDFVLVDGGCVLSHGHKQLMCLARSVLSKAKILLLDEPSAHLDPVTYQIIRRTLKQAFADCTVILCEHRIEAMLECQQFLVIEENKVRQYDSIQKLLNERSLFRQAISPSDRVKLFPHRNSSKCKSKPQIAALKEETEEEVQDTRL
In words: Cell Surface Expression-Horse Radish Peroxidase (CSE-HRP) Assay. Particulars: for EC50: CFBE41o-F508delCFTR-HRP cells, 18-24 hours at 33° C., 8-point curve, highest concentration 20 μM; for Maximum % activity (%): maximum at any tested concentration, normalized to on-plate positive control (3 μM). It counts as cell-based. The procedure, abridged:
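CFBE41o- cells with HRP-tagged F508delCFTR, expression induced by 0.5 μg/mL doxycycline for 72 h at 37 °C, then compound for 18-24 h at 33 °C (8-point, 3-fold, top 20 μM). Surface HRP measured by luminol luminescence; % activity normalised to 3 μM positive-control corrector; EC50 from variable-slope sigmoidal fit, three replicate plates.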

[3] abbreviates: relative to positive control (3 μM) coupled with control potentiator.

T1 sequence (P13569 with tags, fused parts or gaps DEL508-508): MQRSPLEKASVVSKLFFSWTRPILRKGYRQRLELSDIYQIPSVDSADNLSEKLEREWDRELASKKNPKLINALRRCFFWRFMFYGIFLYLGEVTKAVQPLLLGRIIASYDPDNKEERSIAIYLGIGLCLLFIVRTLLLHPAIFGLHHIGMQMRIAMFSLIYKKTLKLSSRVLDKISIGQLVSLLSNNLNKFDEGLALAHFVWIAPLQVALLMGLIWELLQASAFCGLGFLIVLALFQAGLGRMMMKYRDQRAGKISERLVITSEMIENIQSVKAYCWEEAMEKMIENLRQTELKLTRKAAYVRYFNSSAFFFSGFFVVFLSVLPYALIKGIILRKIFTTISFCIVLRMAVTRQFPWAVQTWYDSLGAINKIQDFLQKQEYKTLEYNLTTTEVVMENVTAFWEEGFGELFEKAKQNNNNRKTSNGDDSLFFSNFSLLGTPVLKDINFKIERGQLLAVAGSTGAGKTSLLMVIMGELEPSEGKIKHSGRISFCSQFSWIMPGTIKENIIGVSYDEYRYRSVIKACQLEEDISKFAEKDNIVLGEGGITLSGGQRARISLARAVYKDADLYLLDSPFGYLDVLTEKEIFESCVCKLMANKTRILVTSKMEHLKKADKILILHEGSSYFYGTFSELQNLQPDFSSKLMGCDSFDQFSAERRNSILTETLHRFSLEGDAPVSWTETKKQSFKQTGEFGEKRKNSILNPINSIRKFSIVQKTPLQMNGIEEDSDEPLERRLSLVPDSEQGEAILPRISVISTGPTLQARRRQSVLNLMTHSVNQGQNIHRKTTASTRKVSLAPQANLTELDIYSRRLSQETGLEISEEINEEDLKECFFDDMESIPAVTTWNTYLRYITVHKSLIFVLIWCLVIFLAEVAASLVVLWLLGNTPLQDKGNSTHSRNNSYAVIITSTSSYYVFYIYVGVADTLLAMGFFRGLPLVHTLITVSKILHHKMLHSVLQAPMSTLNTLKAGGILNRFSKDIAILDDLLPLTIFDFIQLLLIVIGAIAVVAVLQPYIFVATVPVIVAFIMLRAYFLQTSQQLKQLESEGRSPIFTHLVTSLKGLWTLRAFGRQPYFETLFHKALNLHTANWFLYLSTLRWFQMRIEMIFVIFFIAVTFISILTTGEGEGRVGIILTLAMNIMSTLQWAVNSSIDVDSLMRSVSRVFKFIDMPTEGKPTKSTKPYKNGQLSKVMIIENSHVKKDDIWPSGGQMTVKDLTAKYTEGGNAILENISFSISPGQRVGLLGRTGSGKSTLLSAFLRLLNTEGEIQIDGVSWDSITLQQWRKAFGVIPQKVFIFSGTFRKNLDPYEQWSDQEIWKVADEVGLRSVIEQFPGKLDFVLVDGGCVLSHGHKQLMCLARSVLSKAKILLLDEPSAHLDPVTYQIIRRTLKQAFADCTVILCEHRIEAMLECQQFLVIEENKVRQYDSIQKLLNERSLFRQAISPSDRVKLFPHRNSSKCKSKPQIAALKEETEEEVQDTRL

`COc1ccc2c(c1)O[C@@H](c1ccc(CO)cn1)C[C@H]2NC(=O)[C@@]1(C)COc2cc3c(cc21)OC(F)(F)O3` [Example 174, (7R)-2,2-difluoro-N-{(2R,4R)-2-[5-(hydroxymethyl)pyridin-2-yl]-7-methoxy-3,4-dihydro-2H-1-benzopyran-4-yl}-7-methyl-6,7-dihydro-2H-furo[2,3-f][1,3]benzodioxole-7-carboxamide]: the half-maximal effective concentration (EC50) in test [1] came out at 15 nM; in test [2] it was 120 nM. In addition, the “Maximum % activity (%)” value in test [1] (setting [3]) came out at 94%; in test [2], 118%.
Consider `CC1(C(=O)Nc2cc(C3CC3)nn(-c3ccc(C(=O)O)cc3)c2=O)COc2cc3c(cc21)OC(F)(F)O3` (stereo not drawn) [Example 30, 4-{3-cyclopropyl-5-[(2,2-difluoro-7-methyl-6,7-dihydro-2H-furo[2,3-f][1,3]benzodioxole-7-carbonyl)amino]-6-oxopyridazin-1(614)-yl}benzoic acid], for which the “Maximum % activity (%)” value in test [1] (testing concentration 10 μM) was 47%; in test [2], 122%. This compound also came in with an EC50 in test [2] of 980 nM.
For the compound `C[C@]1(C(=O)Nc2cc3cc(C4(CO)CCC4)[nH]c3cc2F)COc2cc3c(cc21)OC(F)(F)O3` [Example 172, (7R)-2,2-difluoro-N-{6-fluoro-2-[1-(hydroxymethyl)cyclobutyl]-1H-indol-5-yl}-7-methyl-6,7-dihydro-2H-furo[2,3-f][1,3]benzodioxole-7-carboxamide], the EC50 turned out to be 98 nM in test [1] and 950 nM in test [2]. In addition, the “Maximum % activity (%)” value is 50% in test [1] (setting [3]) and 210% in test [2].
The like results for `COc1ccc2c(c1)O[C@@H](c1ccc(C(=O)O)cc1)C[C@H]2NC(=O)[C@@]1(C)COc2cc3c(cc21)OC(F)(F)O3` [Example 20, 4-[(2R,4R)-4-{[(7R)-2,2-difluoro-7-methyl-6,7-dihydro-2H-furo[2,3-f][1,3]benzodioxole-7-carbonyl]amino}-7-methoxy-3,4-dihydro-2H-1-benzopyran-2-yl]benzoic acid] were, in that order, 11 nM, 30 nM, 98% and 150%.
Take `CC1(C(=O)N[C@@H]2C[C@H](c3cccc(C(=O)O)c3)Oc3ccccc32)CCc2cc3c(cc21)OC(F)(F)O3` (stereo partly drawn) [Example 35, 3-{(2R,4R)-4-[(2,2-difluoro-5-methyl-6,7-dihydro-2H,5H-indeno[5,6-d][1,3]dioxole-5-carbonyl)amino]-3,4-dihydro-2H-1-benzopyran-2-yl}benzoic acid]: the “Maximum % activity (%)” value in test [1] (testing concentration 3 μM) was 80%. In addition, in test [2], a half-maximal effect (EC50) was put at 940 nM and the “Maximum % activity (%)” value turned out to be 76%.
Regarding `COc1ccc2c(c1)O[C@@H](c1cnc([C@H](O)CO)cn1)C[C@H]2NC(=O)[C@@]1(C)COc2cc3c(cc21)OC(F)(F)O3` (single isomer, unassigned) [Example 192], the half-maximal effective concentration (EC50) in test [1] stood at 6 nM; in test [2], 90 nM. For the same compound, the “Maximum % activity (%)” value is listed as 103% in test [1] (setting [3]) and 126% in test [2].
For `COc1ccc2c(c1)O[C@@H]([C@H]1CC[C@H](C(=O)O)CC1)C[C@H]2NC(=O)[C@@]1(C)CCc2cc3c(cc21)OC(F)(F)O3` [Example 168, trans-4-[(2R,4R)-4-{[(5S)-2,2-difluoro-5-methyl-6,7-dihydro-2H,5H-indeno[5,6-d][1,3]dioxole-5-carbonyl]amino}-7-methoxy-3,4-dihydro-2H-1-benzopyran-2-yl]cyclohexane-1-carboxylic acid], the EC50 came to 43 nM in test [1] and 161 nM in test [2]. Also, the “Maximum % activity (%)” value was 101% in test [1] (setting [3]) and 127% in test [2].
With `COc1ccc2c(c1)O[C@@H](c1cccc(C(=O)O)c1)C[C@H]2NC(=O)C1(C)COc2cc3c(cc21)OC(F)(F)O3` (stereo partly drawn) [Example 11, 3-{(2R,4R)-4-[(2,2-difluoro-7-methyl-6,7-dihydro-2H-furo[2,3-f][1,3]benzodioxole-7-carbonyl)amino]-7-methoxy-3,4-dihydro-2H-1-benzopyran-2-yl}benzoic acid], the “Maximum % activity (%)” value in test [1] (testing concentration 1 μM) is given as 91%. For the same compound, in test [2], the EC50 turned out to be 510 nM and the “Maximum % activity (%)” value is reported as 166%.
`C[C@]1(C(=O)N[C@H]2C[C@@H]([C@H]3CC[C@H](C(=O)O)CC3)Oc3cc(OC(F)(F)F)ccc32)COc2cc3c(cc21)OC(F)(F)O3` [Example 149, trans-4-[(2S,4S)-4-{[(7R)-2,2-difluoro-7-methyl-6,7-dihydro-2H-furo[2,3-f][1,3]benzodioxole-7-carbonyl]amino}-7-(trifluoromethoxy)-3,4-dihydro-2H-1-benzopyran-2-yl]cyclohexane-1-carboxylic acid]: the EC50 in test [1] stood at 830 nM; in test [2], 2200 nM. The “Maximum % activity (%)” value amounted to 24% in test [1] (setting [3]) and 44% in test [2].
The matching figures for `C[C@]1(C(=O)N[C@@H]2C[C@H]([C@H]3CC[C@H](C(=O)O)CC3)Oc3cc(OC(F)F)ccc32)COc2cc3c(cc21)OC(F)(F)O3` [Example 160, trans-4-[(2R,4R)-7-(difluoromethoxy)-4-{[(7R)-2,2-difluoro-7-methyl-6,7-dihydro-2H-furo[2,3-f][1,3]benzodioxole-7-carbonyl]amino}-3,4-dihydro-2H-1-benzopyran-2-yl]cyclohexane-1-carboxylic acid]: 5 nM, 44 nM, 85% and 136%.
The matching figures for `COc1ccc2c(c1)O[C@@H](c1ccc(N3C[C@@H](O)[C@H](O)C3)nn1)C[C@H]2NC(=O)[C@@]1(C)COc2cc3c(cc21)OC(F)(F)O3` [Example 251, (7R)—N-[(2R,4R)-2-{6-[(3R,4R)-3,4-dihydroxypyrrolidin-1-yl]pyridazin-3-yl}-7-methoxy-3,4-dihydro-2H-1-benzopyran-4-yl]-2,2-difluoro-7-methyl-6,7-dihydro-2H-furo[2,3-f][1,3]benzodioxole-7-carboxamide]: 5 nM, 30 nM, 86% and 128%.
On to `C[C@]1(C(=O)N[C@@H]2C[C@H](C3(C(=O)N4C[C@H](O)[C@@H](O)C4)CC3)Oc3cc(OC(F)(F)F)ccc32)COc2cc3c(cc21)OC(F)(F)O3` [Example 282, (7R)—N-[(2R,4R)-2-{1-[(3S,4S)-3,4-dihydroxypyrrolidine-1-carbonyl]cyclopropyl}-7-(trifluoromethoxy)-3,4-dihydro-2H-1-benzopyran-4-yl]-2,2-difluoro-7-methyl-6,7-dihydro-2H-furo[2,3-f][1,3]benzodioxole-7-carboxamide], for which the EC50 in test [1] amounted to 282 nM; in test [2], 1860 nM. The “Maximum % activity (%)” value in test [1] (setting [3]) is 100%; in test [2] it was 135%.
As to `Cc1ccc(NC(=O)[C@@]2(C)COc3cc4c(cc32)OC(F)(F)O4)nc1-c1ccc(C(=O)O)cc1` [Example 83, 4-(6-{[(7R)-2,2-difluoro-7-methyl-6,7-dihydro-2H-furo[2,3-f][1,3]benzodioxole-7-carbonyl]amino}-3-methylpyridin-2-yl)benzoic acid], the “Maximum % activity (%)” value in test [1] (testing concentration 10 μM) was determined as 100%. In test [2], the response was half-maximal at 240 nM (EC50) and the “Maximum % activity (%)” value amounted to 172%.
